Measurements: PMC8648872, “A host-directed macrocyclic peptide therapeutic for MDR gram negative bacterial infections” (Scientific Reports, 2021)
Converted amounts (≈) assume the structure as drawn. Where a SMILES comes first, the peptide text is derived from it. Bridges are numbered along the chain shown (N, C = ends).

Key:
[1] = Peptide stability with log-phase E. coli ATCC-BAA-2340 (bacterial proteases); type: in vitro ADME; conditions: suspension of log-phase E. coli ATCC-BAA-2340 bacteria, log-phase E. coli ATCC-BAA-2340, 50 mM HEPES, 37 °C, LC–MS/MS, read-out: MTD12813 found intact
Experimental: (§1) MTD12813 (final concentration of 100 µg/ml) was added to either 90% human EDTA plasma or 90% human serum and incubated at 37 °C for 48 h. Samples were processed by addition of 10% HOAc and 5% ACN (final concentrations) at time 0 and 48 h, and MTD12813 was quantified by C18 RP-HLPC on an Acquity H-Class UPLC with an analytical PDA detector using Empower 3 software (Waters). All samples were performed with technical replicates and analyzed by UPLC in duplicate and the experiment repeated once. […] A time 0 h sample was collected, and the remaining suspension incubated at 37 °C for 24 h. Samples were processed by addition of 5% formic acid/5% acetonitrile, vortexed, and clarified at 22,000×g for 10 min. Supernatant MTD12813 was then quantified by LC–MS/MS as described in PK section above. All samples were performed with technical replicates and analyzed by LC–MS/MS in duplicate.

[2] = Peptide stability in human EDTA plasma; type: in vitro ADME; conditions: 90% (vol/vol) human EDTA-plasma, 37 °C, C18 RP-UPLC with PDA detector, read-out: peptide remaining intact
Experimental: as §1

Kp-1705 = assay: Bacterial burden in Kp-1705 infected mice; type: in vivo, BALB/c mice; conditions: 1.25 mg/kg i.p. 1 h p.i.
Experimental: (§2) BALB/c mice (Jackson Laboratories) 8–10 weeks of age were acclimated (3–5 to a cage for at least 5 days prior to infection) in a thermostatically controlled room with 12 h light/dark cycle. Cryopreserved K. pneumoniae cells were thawed and adjusted to a density of 6–10 × 10^8 CFU/ml, confirmed by plating on trypticase soy agar (TSA) plates. E. coli BAA-2340 was grown to log-phase in trypticase soy broth, pelleted, washed with PBS, and resuspended in PBS at 0.5–1 × 10^9 CFU/ml. Mice were infected by i.p. injection of 2–5 × 10^8 CFU of Kp-1705 or 3–6 × 10^7 CFU of E. coli BAA-2340 using a 28 g needle in a volume of 0.5 ml. Post-infection, mice were observed three times a day for at least 4 days and then daily for 28 days. Mice were euthanized when they became moribund. All experiments used both male and female mice and were repeated at least twice.
(§3) Blood, peritoneal lavage fluid, and spleen homogenates were obtained from mice following by CO2 euthanasia. Citrate-anti-coagulated blood was collected by aseptic cardiac puncture. Peritoneal lavage was performed by injecting 3 ml of PBS into the peritoneal cavity, massaging the abdomen, and then collecting fluid aseptically through a minor incision in the abdominal wall. Spleen was surgically removed and homogenized in sterile PBS using Polytron PT10-35 homogenizer. Samples were serially diluted and plated in triplicate on TSA plates, incubated overnight at 37 °C and colonies counted.

K. pneumoniae BAA-1706 = assay: microbe, parasite or virus in culture; type: cell-based; conditions: K. pneumoniae BAA-1706, no MDR factor
Experimental: (§4) Bacterial strains were obtained from American Type Culture Collection. K. pneumoniae strains included BAA-1705 (blaKPC-2, hypermucoid), BAA-2146 (blaNDM-1), BAA-700603 (SHV-18, extended spectrum β-lactamase, ESBL), and BAA-1706 (non-CRE reference strain). E. coli strains included BAA-2340 (blaKPC-2), BAA-2471 (blaNDM-1), and ML35 (non-CRE reference strain).
(§5) Minimum inhibitory concentration (MIC) assays were performed ± 50% heat-inactivated mouse serum using Clinical and Laboratory Standards Institute (CLSI; document M07-A9) protocols. Bacteria (5 × 10^5 CFU/ml) were incubated with antibiotics or peptide for 20 h at 37 °C, and bacterial growth was determined by A620 using a SpectraMax M5e plate reader.

E. coli BAA-2471 (NDM-1) = assay: microbe, parasite or virus in culture; type: cell-based
Experimental: as §4, §5

[3] = test system: K. pneumoniae 700603 (ESBL); assay: microbe, parasite or virus in culture; type: cell-based
Experimental: as §4, §5

E. coli BAA-2340 (KPC-2) = assay: microbe, parasite or virus in culture; type: cell-based; conditions: E. coli BAA-2340, KPC-2
Experimental: as §4, §5

E. coli ML35 = assay: microbe, parasite or virus in culture; type: cell-based; conditions: E. coli ML35, no MDR factor
Experimental: as §4, §5

[4] = test system: K. pneumoniae BAA-1705 (KPC-2); assay: microbe, parasite or virus in culture; type: cell-based; conditions: 20 h, 37 °C
Experimental: as §4, §5

[5] = test system: K. pneumoniae BAA-2146 (NDM-1); assay: microbe, parasite or virus in culture; type: cell-based
Experimental: as §4, §5

neutrophils = assay: Neutrophil recruitment (peritoneal lavage and blood); type: in vivo, BALB/c mice
Experimental: as §3
EDTA-anticoagulated blood was collected aseptically by terminal cardiac puncture and analyzed for complete blood cell count using an Element HT5 hematology analyzer (Heska). Blood plasma and clarified peritoneal lavage were prepared by two-step centrifugation described previously. Plasma cytokine levels were quantified using a mouse-specific MILLIPLEX MAP kit (Millipore Cat# MCYTMAG-70K) as described.

[6] = Peptide stability in human serum; type: in vitro ADME; conditions: 90% (vol/vol) human serum, 37 °C, C18 RP-UPLC with PDA detector, read-out: peptide remaining intact
Experimental: as §1

E. coli BAA-2340 = assay: CRE E. coli BAA-2340 septicemia, survival; type: in vivo, BALB/c mice; conditions: KPC+ E. coli BAA-2340 i.p., saline controls 10%
Experimental: as §2

[7] = test system: CRE and non-CRE strains of K. pneumoniae and E. coli; type: cell-based; conditions: standard CLSI assay conditions
Experimental: as §4, §5

[8] = 50% heat inactivated mouse serum
[9] = CLSI, 20 h, 37 °C, A620, no serum

Q: Which results are given for `CC[C@H](C)[C@@H]1NC(=O)[C@@H]2CSSC[C@H](NC(=O)[C@H]([C@@H](C)CC)NC(=O)[C@@H]3CSSC[C@H](NC1=O)C(=O)N[C@@H](C(C)C)C(=O)NCC(=O)N[C@@H](CCCNC(=N)N)C(=O)NCC(=O)N3)C(=O)N[C@@H](C(C)C)C(=O)N[C@@H](CCCNC(=N)N)C(=O)N[C@@H](CCCNC(=N)N)C(=O)N[C@@H](CCCNC(=N)N)C(=O)N2` [MTD12813] (cyclo(CICVGRGCICVRRR); disulfide 1-10, 3-8)?
A: remaining at 24 h, 1.25 µg/ml [1]: 81.3 ± 2.1%; remaining at 48 h, 100 µg/ml [2]: > 95%; reduction of viable bacteria versus saline, PLF (Kp-1705; 4 h p.i.): 99.5%; reduction of viable bacteria versus saline, blood (Kp-1705; 4 h p.i.): 79.1%; reduction of viable bacteria versus saline, spleen (Kp-1705; 4 h p.i.): 70.4%; reduction of bacterial burden, PLF (Kp-1705; 24 h): 99.8%; reduction of bacterial burden, blood (Kp-1705; 24 h): 93.8%; reduction of bacterial burden, spleen homogenates (Kp-1705; 24 h): 94.4%; MIC (K. pneumoniae BAA-1706; [8]): > 100 µg/mL; MIC (K. pneumoniae BAA-1706; [9]): 3.13 µg/mL (≈ 1.99 µM); MIC (E. coli BAA-2471 (NDM-1); [8]): 100 µg/mL (≈ 63.6 µM); MIC (E. coli BAA-2471 (NDM-1); [9]): 3.13 µg/mL (≈ 1.99 µM); MIC [3, 8]: > 100 µg/mL; MIC [3, 9]: 6.25 µg/mL (≈ 3.98 µM); MIC (E. coli BAA-2340 (KPC-2); [8]): > 100 µg/mL; MIC (E. coli BAA-2340 (KPC-2); [9]): 6.25 µg/mL (≈ 3.98 µM); MIC (E. coli ML35; [8]): > 100 µg/mL; MIC (E. coli ML35; [9]): 3.13 µg/mL (≈ 1.99 µM); MIC ([4]; CLSI M07-A9, 5 × 10^5 CFU/ml, A620, no serum): 6.25 µg/mL (≈ 3.98 µM); MIC ([4]; in the presence of 50% heat inactivated mouse serum, A620): > 100 µg/mL; MIC [5, 8]: > 100 µg/mL; MIC [5, 9]: 6.25 µg/mL (≈ 3.98 µM); PLF neutrophils versus saline (neutrophils; Kp-1705 infected mice, 1.25 mg/kg i.p. 1 h p.i., 24 h, P = 0.0048): threefold increase; blood neutrophils (neutrophils; Kp-1705 infected mice, 1.25 mg/kg i.p. 1 h p.i., peak at ca. 2 h p.i.): transient peripheral blood neutrophilia; PLF neutrophil numbers in sham-infected mice (neutrophils; sham-infected mice, 24 h after peptide delivery): no increase in neutrophil numbers; remaining at 48 h, 100 µg/ml [6]: > 95%; survival ≥ 28 days (E. coli BAA-2340; single i.p. injection 1.25 mg/kg 1 h p.i.): 100%; survival ≥ 28 days (E. coli BAA-2340; single i.p. injection 5 mg/kg 1 h p.i.): 100%; MIC against all seven organisms of the panel [7]: 3.13 to 6.25 µg/mL
